Legend:
[1] = test system: p27; assay: Immunoblotting, p27 expression in GL261; format: cell-based, mouse; details: GL261, 10 µM, 48 h
Experimental: (§1) GL261 cell was seeded at 2.5 × 10^4 cells per well in 24-well plates with culture medium supplemented with 10% FBS. After 24 h of incubation, the medium was changed to DMEM containing 10% FBS and 0.1%DMSO PBS, 300 μM temozolomide, 10 μM astaxanthin, or 10 μM adonixanthin was added for 6 and 48 h. Cells were lysed in a special buffer (RIPA buffer R0278; Sigma-Aldrich, St. Louis, MO, USA) with a protease inhibitor cocktail (Sigma-Aldrich), phosphatase inhibitor cocktails 2 and 3 (Sigma-Aldrich), and sample buffer (Wako, Osaka, Japan). The protein concentration was determined by comparison with a known concentration of bovine serum albumin using the BCA Protein Assay Kit (Thermo Fisher Scientific). The amount of total protein was 2 μg. Equal amounts of protein in sample buffer containing 10% 2-mercaptoethanol were subjected to sodium dodecyl sulphate polyacrylamide gel electrophoresis (SDS-PAGE) in 5-20% gradient gels (SuperSep Ace; Wako), and the separated proteins were transferred to polyvinylidene difluoride membrane (Immobilon-P; Merck Millipore Corporation, Bedford, MA, USA). After blocking for 30 min with Blocking One-P (Nacalai Tesque), we incubated the membranes with primary antibodies overnight at 4 °C. […] The band intensity was […] an Immuno Star LD (Wako). Band intensity was measured using an LAS-4000 UV mini Luminescent Image Analyzer (Fujifilm, Tokyo Japan) and Multi Gauge Version 3.0 (Fujifilm). The phosphorylation of ERK1/2, Akt, and p38 MAPK was measured by normalizing against total ERK1/2, total Akt, and total p38 MAPK. […]

[2] = test system: NADPH oxidase 4 (Nox4); assay: Immunoblotting, Nox4 expression in GL261; format: cell-based, mouse; details: GL261, 10 µM, 6 h
Experimental: as §1, with “μg.” for “μg. Equal amounts of protein in sample buffer containing 10% 2-mercaptoethanol were subjected to sodium dodecyl sulphate polyacrylamide gel electrophoresis (SDS-PAGE) in 5-20% gradient gels (SuperSep Ace; Wako), and the separated proteins were transferred to polyvinylidene difluoride membrane (Immobilon-P; Merck Millipore Corporation, Bedford, MA, USA). After blocking for 30 min with Blocking One-P (Nacalai Tesque), we incubated the membranes with primary antibodies overnight at 4 °C.”

[3] = test system: intracellular ROS in GL261 cells; assay: Reactive oxygen species assay (CM-H2DCFDA); format: cell-based, mouse; details: GL261, 1 and 10 µM, 6 h
Experimental: Intracellular radical activation within GL261 cells was measured with 5-(and-6)-chloromethyl—2′,7′-dichlorodihydrofluorescein diacetate, acetyl ester (CM-H2DCFDA; Thermo Fisher Scientific, MA, USA). Six hours after treatment of temozolomide, astaxanthin, or adonixanthin, CM-H2DCFDA was added to the culture medium and incubated at 37 °C for 1 h under shading in GL261. Fluorescence was measured using a Varioscan Flash 2.4 microplate reader (Thermo Fisher Scientific, MA, USA) at 485 (excitation)-535 nm (emission). Measurements were performed 0, 30, and 60 min after the addition of CM-H2DCFDA.

[4] = ICR, mouse, in vivo, po
Experimental: In the experiment of the murine orthotopic glioblastoma model, oral administration of each astaxanthin (10 and 30 mg/kg) and adonixanthin (10 and 30 mg/kg) was initiated 3 days after intracranial injection of GL261 cells and was continued for 10 days. In the experiment of the brain tissue absorption with oral astaxanthin or adonixanthin, after one week of adaptation, ICR mice were randomly divided into the following three groups: control group, astaxanthin group (50 mg/kg), and adonixanthin group (50 mg/kg). Mice were orally administered each reagent suspended in olive oil (5 mL/kg) by the daily single dose for 10 days. The control group was treated by olive oil alone (5 mL/kg).
In mice, blood samples were collected under anaesthesia by using sodium pentobarbital (50 mg/kg, 10 mL/kg, i.p). To separate serum and from blood, we centrifuged at 1700 g for 10 min. […]
Carotenoid fraction was collected from blood and some tissues by silica gel HPLC using a Cosmosil 5SL-II column with acetone:hexane (2:8, v/v) for the mobile phase at a flow rate of 1.0 mL/min as described above. […] Identification of each carotenoid was performed by authentic carotenoids obtained from Paracoccus (ENEOS Corporation, Tokyo, Japan) by our routine methods and the content of each carotenoid was calculated from peak areas by comparison with the authentic samples.

expression of Nox4 [2]	concentration detected in the brain [4]	SMILES	expression of p27 [1]	amount of intracellular ROS [3]
significantly decreased	~10 nM	CC1=C(/C=C/C(C)=C/C=C/C(C)=C/C=C/C=C(C)/C=C/C=C(C)/C=C/C2=C(C)C(=O)[C@@H](O)CC2(C)C)C(C)(C)C[C@H](O)C1 [Adonixanthin, adonixanthin]	increased	decreased
no change	approximately 30 nM	CC1=C(/C=C/C(C)=C/C=C/C(C)=C/C=C/C=C(C)/C=C/C=C(C)/C=C/C2=C(C)C(=O)[C@@H](O)CC2(C)C)C(C)(C)C[C@H](O)C1=O [Astaxanthin, astaxanthin]	increased	decreased
